T1: Cytochrome P450 1A2 (Homo sapiens, UniProt P05177)
T1 sequence (P05177 whole entry): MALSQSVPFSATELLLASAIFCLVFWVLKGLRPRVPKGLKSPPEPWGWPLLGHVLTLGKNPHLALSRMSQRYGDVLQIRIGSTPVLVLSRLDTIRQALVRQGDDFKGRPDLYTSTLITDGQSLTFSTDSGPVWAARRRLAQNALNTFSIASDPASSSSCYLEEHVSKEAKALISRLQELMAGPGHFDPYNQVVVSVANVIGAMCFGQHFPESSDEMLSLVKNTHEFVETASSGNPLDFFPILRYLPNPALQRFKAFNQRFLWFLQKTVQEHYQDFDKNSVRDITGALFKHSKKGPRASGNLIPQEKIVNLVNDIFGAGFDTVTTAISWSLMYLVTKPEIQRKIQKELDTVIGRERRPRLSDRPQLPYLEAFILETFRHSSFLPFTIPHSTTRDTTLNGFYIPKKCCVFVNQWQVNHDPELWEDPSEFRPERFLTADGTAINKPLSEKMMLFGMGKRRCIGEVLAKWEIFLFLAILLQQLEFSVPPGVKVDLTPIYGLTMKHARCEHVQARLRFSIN

B1: Cytochrome P450 2D6 (Homo sapiens) (protein)
chain: MGLEALVPLAVIVAIFLLLVDLMHRRQRWAARYPPGPLPLPGLGNLLHVDFQNTPYCFDQLRRRFGDVFSLQLAWTPVVVLNGLAAVREALVTHGEDTADRPPVPITQILGFGPRSQGVFLARYGPAWREQRRFSVSTLRNLGLGKKSLEQWVTEEAACLCAAFANHSGRPFRPNGLLDKAVSNVIASLTCGRRFEYDDPRFLRLLDLAQEGLKEESGFLREVLNAVPVLLHIPALAGKVLRFQKAFLTQLDELLTEHRMTWDPAQPPRDLTEAFLAEMEKAKGNPESSFNDENLRIVVADLFSAGMVTTSTTLAWGLLLMILHPDVQRRVQQEIDDVIGQVRRPEMGDQAHMPYTTAVIHEVQRFGDIVPLGVTHMTSRDIEVQGFRIPKGTTLITNLSSVLKDEAVWEKPFRFHPEHFLDAQGHFVKPEAFLPFSAGRRACLGEPLARMELFLFFTSLLQHFSFSVPTGQPRPSHHGVFAFLVSPSPYELCAVPR
B2: Cytochrome P450 1A2 (Homo sapiens) (protein)
chain: T1 sequence (P05177 whole entry)
B3: Cytochrome P450 2C19 (Homo sapiens) (protein)
chain: MDPFVVLVLCLSCLLLLSIWRQSSGRGKLPPGPTPLPVIGNILQIDIKDVSKSLTNLSKIYGPVFTLYFGLERMVVLHGYEVVKEALIDLGEEFSGRGHFPLAERANRGFGIVFSNGKRWKEIRRFSLMTLRNFGMGKRSIEDRVQEEARCLVEELRKTKASPCDPTFILGCAPCNVICSIIFQKRFDYKDQQFLNLMEKLNENIRIVSTPWIQICNNFPTIIDYFPGTHNKLLKNLAFMESDILEKVKEHQESMDINNPRDFIDCFLIKMEKEKQNQQSEFTIENLVITAADLLGAGTETTSTTLRYALLLLLKHPEVTAKVQEEIERVIGRNRSPCMQDRGHMPYTDAVVHEVQRYIDLIPTSLPHAVTCDVKFRNYLIPKGTTILTSLTSVLHDNKEFPNPEMFDPRHFLDEGGNFKKSNYFMPFSAGKRICVGEGLARMELFLFLTFILQNFNLKSLIDPKDLDTTPVVNGFASVPPFYQLCFIPV

What was measured:
[1] = Drug metabolism in human liver microsomes by optimal design approach
Liver microsome [2] = experiment: Drug metabolism in human liver microsomes assessed as intrinsic clearance per mg protein by multiple depletion curves method
[3] = Drug metabolism in human liver microsomes by multiple depletion curves method
Liver microsome [4] = experiment: Drug metabolism in human liver microsomes assessed as intrinsic clearance per mg protein by optimal design approach
Cytochrome P450 2D6 [5] = molecular target: T2, Cytochrome P450 2D6 (Homo sapiens, UniProt P10635); experiment: Drug metabolism in assessed as human CYP2D6-mediated intrinsic clearance per mg protein; assay type: ADME; conditions: recombinant enzyme
CYP2D6 = CYP2D6 (Homo sapiens, UniProt P10635); experiment: Drug metabolism in assessed as human CYP2D6-mediated metabolism; assay type: ADME; conditions: recombinant enzyme
Cytochrome P450 2D6 [6] = molecular target: T2, Cytochrome P450 2D6; experiment: Drug metabolism in assessed as human CYP2D6-mediated maximum rate of reaction per mg protein; assay type: ADME; conditions: recombinant enzyme
CYP2C9 = CYP2C9 (Homo sapiens, UniProt P11712); experiment: Drug metabolism in assessed as human CYP2C9-mediated metabolism; assay type: ADME; conditions: recombinant enzyme
Sequence of CYP2C9 (P11712 whole entry): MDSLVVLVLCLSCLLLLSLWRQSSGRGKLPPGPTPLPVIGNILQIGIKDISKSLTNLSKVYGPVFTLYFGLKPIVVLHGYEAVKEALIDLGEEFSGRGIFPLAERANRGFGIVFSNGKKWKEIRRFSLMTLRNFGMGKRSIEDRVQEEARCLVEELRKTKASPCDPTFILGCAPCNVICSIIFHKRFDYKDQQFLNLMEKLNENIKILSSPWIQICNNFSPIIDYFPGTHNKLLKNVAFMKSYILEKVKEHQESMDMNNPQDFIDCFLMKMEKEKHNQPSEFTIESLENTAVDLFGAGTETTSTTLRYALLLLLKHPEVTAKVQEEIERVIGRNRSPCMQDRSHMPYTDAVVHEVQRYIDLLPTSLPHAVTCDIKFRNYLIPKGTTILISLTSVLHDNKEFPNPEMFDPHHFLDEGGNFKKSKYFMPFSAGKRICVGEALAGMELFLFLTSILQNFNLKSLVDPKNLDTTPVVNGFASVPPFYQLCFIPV

Cytochrome P450 2C9 [7] = molecular target: T3, Cytochrome P450 2C9 (Homo sapiens, UniProt P11712); experiment: Drug metabolism in assessed as human CYP2C9-mediated maximum rate of reaction per mg protein; assay type: ADME; conditions: recombinant enzyme
T3 sequence (P11712 whole entry): as above

Cytochrome P450 2C9 [8] = molecular target: T3, Cytochrome P450 2C9; experiment: Drug metabolism in assessed as human CYP2C9-mediated intrinsic clearance per mg protein; assay type: ADME; conditions: recombinant enzyme
CYP3A = experiment: Drug metabolism in assessed as human CYP3A-mediated metabolism; assay type: ADME; conditions: recombinant enzyme
[9] = Drug metabolism in assessed as human CYP3A-mediated intrinsic clearance per mg protein; assay type: ADME; conditions: recombinant enzyme
[10] = Drug metabolism in assessed as human CYP3A-mediated maximum rate of reaction per mg protein; assay type: ADME; conditions: recombinant enzyme
Cytochrome P450 1A2 [11] = molecular target: T1, Cytochrome P450 1A2; experiment: Drug metabolism in assessed as human CYP1A2-mediated maximum rate of reaction per mg protein; assay type: ADME; conditions: recombinant enzyme
Cytochrome P450 1A2 [12] = molecular target: T1, Cytochrome P450 1A2; experiment: Drug metabolism in assessed as human CYP1A2-mediated intrinsic clearance per mg protein; conditions: recombinant enzyme
not read [13] = substrate: CCc1cccc2cc(C(O)CNC(C)(C)C)oc12; experiment: not read
not read [14] = substrate: CN(C)CCCN1c2ccccc2CCc2ccccc21; experiment: not read

Molecule	Km ([1]; microsomes)	CLH (Liver microsome [2])	Km ([3]; microsomes)	CLH (Liver microsome [4])	Km ([1]; liver microsomes)	Km ([3]; liver microsomes)	also measured
CCN(CC)Cc1cc(Nc2ccnc3cc(Cl)ccc23)ccc1O [AMODIAQUINE]	5.17 µM	829 µL/min/g	3.33 µM	224 µL/min/g			
CCc1cccc2cc(C(O)CNC(C)(C)C)oc12 (stereo not drawn) [BUFURALOL]	12.8 µM	31 µL/min/g	11.7 µM	32.3 µL/min/g			clearance (Cytochrome P450 2D6 [5]): 3 µL/min/mg
COc1ccc2c(c1)[C@]13CCCC[C@@H]1[C@H](C2)N(C)CC3 [DEXTROMETHORPHAN]		84.1 µL/min/g		54.2 µL/min/g	6.32 µM	7.16 µM	Km (CYP2D6): 1400 nM; Vmax (Cytochrome P450 2D6 [6]): 140 pmol/min
O=C(O)Cc1ccccc1Nc1c(Cl)cccc1Cl [DICLOFENAC]	8.55 µM		11.6 µM				Km (CYP2C9): 1700 nM; Vmax (Cytochrome P450 2C9 [7]): 710 pmol/min; clearance (Cytochrome P450 2C9 [8]): 130 µL/min/mg
COc1ccc([C@@H]2Sc3ccccc3N(CCN(C)C)C(=O)[C@@H]2OC(C)=O)cc1 [DILTIAZEM]		47.6 µL/min/g		75.4 µL/min/g	9.8 µM	10 µM	
Cc1ncc2n1-c1ccc(Cl)cc1C(c1ccccc1F)=NC2 [MIDAZOLAM]	3.04 µM	717 µL/min/g	1.26 µM	220 µL/min/g			Km (CYP3A): 1200 nM; CL [9]: 159 µL/min/g; Vmax [10]: 636 pmol/min
CCOc1ccc(NC(C)=O)cc1 [PHENACETIN]		39.5 µL/min/g		50.4 µL/min/g	22.6 µM	22.6 µM	Vmax (Cytochrome P450 1A2 [11]): 322 pmol/min; CL (Cytochrome P450 1A2 [12]): 14.6 µL/min/g
B1							Km (not read [13]): 8.2 µM; Vmax (not read [13]): 7e-05 µmol/min
B2							Km (not read [14]): 5 µM; Vmax (not read [14]): 0.000117 µmol/min
B3							Km (not read [14]): 5 µM; Vmax (not read [14]): 0.000117 µmol/min

Source: ChEMBL document CHEMBL3526124, “Optimized experimental design for the estimation of enzyme kinetic parameters: an experimental evaluation” (Drug Metab Dispos, 2012)
